Measurements published in patent publication US8304238B2, “Cell culture medium and immobilized preparation of cell adhesion protein or peptide” (Nat'l Institute for Environmental Studies, priority 2003, dated 2012).
Where no end group is shown, it is not given here. [ ]: non-standard residue; d: D form. Nle = CCCC[C@H](N)C(=O)O

Key:
Type in all cases: cell-based
[1] = tested on: alveolar type II epithelial cells (T2 cells); experiment: Adhesion of T2 cells to pseudomatrices dissolved in 50% ethanol and air-dried/immobilized, and competitive inhibition by free peptide; details: for Free GRGDSP concentration at which cell adhesion was almost completely inhibited: free peptide 0.25-4.0 mg/ml tested; for Competitive inhibition of cell adhesion by free peptide: 50% ethanol air-dried pseudomatrix, 0.25 mg/ml free AG73 or FIB-1; for Adhesion of T2 cells to pseudomatrix compared with coated FN: 0.1-1.0 μg/well, 24 hours serum-free
Description: 50 μl of 2-20 μg/ml MAST-GRGDSP (Gly-Arg-Gly-Asp-Ser-Pro) (SEQ ID NO: 22) and MMAC-GRGDSP (SEQ ID NO: 22) dissolved in 50% ethanol were poured into wells, and air-dried/immobilized. Next, the wells to which MAST-GRGDSP (SEQ ID NO: 22) and MMAC-GRGDSP (SEQ ID NO: 22) (0.1-1.0 μg/well) were coated were rinsed with the serum-free DMEM medium. T2 cells suspended in the medium at the concentration of 6×10^4 cells/100 μl were seeded, and cultured in a CO2 incubator at 37° C. for 24 hours. Then, the cells were fixed with methanol, stained, and measured its absorbance according to the method in Example 7. A culture wherein FN was coated as a standard material was conducted simultaneously. The cell adhesion on FN was shown as a standard (100%).
In the same manner as in Example 18, MAST-GRGDSP (SEQ ID NO: 22) was dissolved in 50% ethanol, air-dried/immobilized on wells, and T2 cells were seeded/cultured thereon. Separately, just before the cells were seeded, 0.25-4.0 mg/ml of free GRGDSP (SEQ ID NO: 22) peptide was added to the cell suspension, and the culture and the subsequent measurement of absorbance were conducted in the same manner as described above. […] Further, when the applied amount of MAST-GRGDSP (SEQ ID NO: 22) was decreased, the immobilized amount of GRGDSP (SEQ ID NO: 22) decreased, and the competitive inhibition by free GRGDSP (SEQ ID NO: 22) peptide worked more effectively.
(§1) In the same manner as in Example 18, MMAC-GRGDSP (SEQ ID NO: 22) was dissolved in 50% ethanol, air-dried/immobilized on wells, and T2 cells were seeded/cultured thereon. Separately, just before the cells were seeded, 0.25-4.0 mg/ml of free GRGDSP (SEQ ID NO: 22) peptide was added to the cell suspension, and the culture and the subsequent measurement of absorbance were conducted in the same manner as described above.
as §1, with “MBAC/MAST-AG73 and -FIB-1 were” for “MMAC-GRGDSP (SEQ ID NO: 22) was”, “0.25” for “0.25-4.0”, “AG73 or FIB-1” for “GRGDSP (SEQ ID NO: 22)”

[2] = tested on: alveolar type II epithelial cells (T2 cells); experiment: Binding strength (affinity) of immobilized LN peptides to T2 cells relative to immobilized FIB-1 (mixed immobilization, free FIB-1 competition); design: key to Binding strength to T2 cells, Comprehensive evaluation: AA: extremely strongly binding/adhering; A: strongly binding/adhering; B: intermediately binding/adhering (as the same degree as FIB-1 peptide); C: more weakly binding/adhering than FIB-1 peptide
Description: Therefore, the amount of FIB-1 peptide was set at 0.25 mg/ml, and AG73 peptide was mixed therewith, while changing its concentration ratio, from 1/1.250 of FIB-1 in an amount which is 0.20 μg/ml, to ½ of FIB-1 in an amount which is 0.125 mg/ml, and the mixture was immobilized on a well wherein a hydrophobic binding-adsorptive polymer MMAC was coated. The amount of cell adhesion in the case where T2 cells were cultured under a serum-free condition for 1 day on the immobilized peptides is shown in FIG. 9, in comparison with the case where the culture was conducted on the immobilized FIB-1, which was set at 100%.
However, in a case that the ratio of FIB-1:AG73 increased to 1:0.02, because T2 cells already transited to be adherent through the immobilized AG73 peptide, free FIB-1 peptide could no longer inhibit the cell adhesion. […] Likewise, with regard to A3G72 and A4G82 peptides, because the mixing ratio at the transitional midpoint=0.1, their binding strength to T2 cells is 10 times as much as that of FIB-1.
The method used in FIGS. 8 and 9 is extremely effective as a convenient method by which a relative order can be measured concerning to the binding strength (affinity) of cell adhesion peptides and the strength of cell adhesion can be considered quantitatively.
In Table 1, the classification is shown based on the results of the affinity (bonding/adhesion strength) between FIB-1 peptide containing RGD amino acid sequence of FN molecule, a binding site to integrin, and T2 cells: laminin α-chain G-domain peptides are classified into class AA, extremely strong binding/adhesion; class A, strong adhesion; class B, adhesion as the same degree as FIB-1; and class C, binding weaker than the described above.

[3] = tested on: alveolar type II epithelial cells (T2 cells); experiment: Inhibition by free cell adhesion peptides of T2 cell adhesion to coated cell adhesion proteins FN, Col I, LN, VN; details: free peptide 0.25 mg/ml; serum-free, 1 day
Description: Commercially available FN, LN and VN, usually used as cell adhesion proteins at cell culture, were coated to wells at the concentrations of 5 μg/ml, 10 μg/ml and 10 μg/ml, respectively. In case of Col I (collagen type I), Col I at the concentration of 100 μg/ml, dissolved in 1 mM HCl, was poured into a well, left stand still for a while, and then the solution was removed and air-drying was conducted, and rinsed with the medium, before use. Next, 6×10^5 cells/ml of alveolar type II epithelial cells (T2 cells) suspended in the serum-free DMEM medium was seeded by 100 μl each on a 96-well to which the extracellular matrix was coated, and cultured in a CO2 incubator at 37° C. for 1 day. After the culture was finished, the cells were fixed with 100 μl of methanol for 5 minutes, and stained for 30 minutes with 50 μl of 0.4% crystal violet. Excessive staining was washed with water, then the number of cells adhered to FN, Col I, LN and VN, which had been coated to the wells, was counted based on the absorbance of cytoplasm (A595).
On the other hand, among amino acid sequences of various LN molecules, the sequences that induce cell adhesion are known to be present. […] Then, the number of cells was counted in accordance with the method described above.

[4] = tested on: alveolar type II epithelial cells (T2 cells); experiment: Inhibition of T2 cell adhesion by free peptide different from the immobilized peptide substrate
Description: Results obtained by adding the free peptides different from the immobilized peptides when T2 cells were cultured on the immobilized peptide prepared according to the method in Example 7, were shown in FIG. 8.
When adding the free peptides that were the same as the immobilized peptides in the culture medium, the both (free and immobilized) peptides compete for syndecan of T2 cells and as a result, the cell adhesion is inhibited (see Example 7). So far, four types of syndecans are genetically known. Whether these syndecans are commonly owned or accommodated by each peptide, overlapping only by some degrees, otherwise mutually exclusive, was examined herein.

[5] = tested on: alveolar type II epithelial cells (T2 cells); experiment: Adhesion of T2 cells to pseudomatrix adsorbed/immobilized from DMEM and competitive inhibition by free peptides; details: for Cell adhesion ability of immobilized pseudomatrix compared with directly coated FN: 1-10 μg/ml in DMEM, 1-day serum-free culture, excluding 1 μg/ml of MBAC-AG73; for Competitive inhibition of cell adhesion to pseudomatrix by free cell adhesion peptide: pseudomatrix 1-10 μg/ml in DMEM
Description: 200 mg each of hydrophobic binding-adsorptive polymer, MBAC, MAST or MMAC were dispersed into water, and 1 N NaOH solution was added little by little to dissolve them completely. 50 mg of WSC (1-ethyl-3-(3-dimethylamino propyl)carbodiimide, hydrochloride) was added to the resulting solution, and the reaction was conducted for 2 hours. Subsequently, 20 mg of peptide was added, and the reaction was continued with stirring for 2 hours at room temperature. After the reaction was finished, the reactant was subjected to dialysis with water to remove alkaline and low molecules, and then freeze-dried to prepare a pseudomatrix of interest.
Each pseudomatrix prepared in Example 13 to which cell adhesion peptide was bound (MBAC-peptide) was diluted in DMEM medium to the concentration of 1-10 μg/ml, and the resultant solution was poured into a 96-well by 100 μl each, and left still overnight in a CO2 incubator to be adsorbed and immobilized on the wells. Non-adsorbed MBAC-peptides were removed by rinsing well with DMEM medium. Next, T2 cells suspended at the concentration of 6×10^5 cells/ml were seeded in the serum-free DMEM by 100 μl each. After 1-day serum-free culture, T2 cells were fixed with 100 μl of methanol for 5 minutes, and stained with 50 μl of 0.4% crystal violet for 30 minutes. Excessive staining was washed with water, and the number of adhering cells was counted based on the absorbance of cytoplasm (A595).
In the same manner as in Example 14, each pseudomatrix prepared in Example 13 to which cell adhesion peptide was bound (MAST-peptide) was adsorbed and immobilized on a 96-well, and T2 cells were seeded and cultured thereon.

For “Gly-Arg-Gly-Asp-Ser-Pro (GRGDSP) [reference compound]”, the “Free GRGDSP concentration at which cell adhesion was almost completely inhibited” value ([1]; adhesion to MAST-GRGDSP) was 4.0 mg/mL and the “Free GRGDSP concentration at which cell adhesion was almost completely inhibited” value ([1]; adhesion to MMAC-GRGDSP) was 1.0 to 4.0 mg/mL.
LVLFLNHGHFVA was tested, and the “Binding strength to T2 cells, Comprehensive evaluation” value ([2]; classification relative to FIB-1 peptide) was “B”, the “Mixing ratio at the transitional midpoint” value ([2]; peptide:FIB-1 co-immobilized, FIB-1 0.25 mg/ml, loss of inhibition by free FIB-1) was “about 1” and the “Inhibition of adhesion of T2 cells to FN, Col I, LN and VN by free peptide” value [3] was “inhibited adhesion of T2 cells”. For the same substance, the “Inhibition by free peptide of T2 cell adhesion to immobilized AG73” value ([4]; AG73 (etc.) immobilized) was “inhibited the cell adhesion” and the “Inhibition by free peptide of T2 cell adhesion to immobilized FIB-1” value ([4]; FIB-1 immobilized) was “could inhibit”.
For “MAST-A3G72: pseudomatrix: MAST polymer reacted with A3G72 peptide (KPRLQFSLDIQT)”, the “Cell adhesion ability of immobilized pseudomatrix compared with directly coated FN” value [5] was “the same level of cell adhesion ability as in the case where FN was directly coated” and the “Competitive inhibition of cell adhesion to pseudomatrix by free cell adhesion peptide” value [5] was “competitively inhibited by the free cell adhesion peptide, the degree is lower than the case of MBAC-peptide”.
In the case of “MAST-A4G82X: pseudomatrix: MAST polymer reacted with A4G82X peptide (TLFLAHGRLVF[Nle]; also: peptide reacted with MAST polymer (pseudomatrix))”, the “Cell adhesion ability of immobilized pseudomatrix compared with directly coated FN” value [5] is reported as “the same level of cell adhesion ability as in the case where FN was directly coated” and the “Competitive inhibition of cell adhesion to pseudomatrix by free cell adhesion peptide” value [5] is reported as “inhibited by free A4G82 peptide”.
For “MAST-AG73: pseudomatrix: MAST polymer reacted with AG73 peptide (RKRLQVQLSIRT)”, the “Cell adhesion ability of immobilized pseudomatrix compared with directly coated FN” value [5] was “the same level of cell adhesion ability as in the case where FN was directly coated”, the “Competitive inhibition of cell adhesion to pseudomatrix by free cell adhesion peptide” value [5] was “competitively inhibited by the free cell adhesion peptide, the degree is lower than the case of MBAC-peptide” and the “Competitive inhibition of cell adhesion by free peptide” value [1] was “almost completely inhibited”. The “Adhesion of T2 cells to pseudomatrix compared with coated FN” value (“Adhesion … compared with coated FN” for short) ([1]; 50% ethanol, air-dried) was “similarly to the case where FN was coated”.
For “MAST-GRGDSP: pseudomatrix: MAST polymer bound to GRGDSP peptide (also: bound to MAST polymer)”, the “Adhesion … compared with coated FN” value ([1]; 50% ethanol, air-dried) was “slightly lower than that of the standard cell adhesion protein FN” and the “Amount of cell adhesion compared with the same peptide bound to MMAC” value ([1]; 50% ethanol, air-dried, polystyrene wells) was “larger amount of cell adhesion than that of the same peptide bound to MMAC polymer”.
With “MBAC-A3G72: pseudomatrix: MBAC polymer reacted with A3G72 peptide (KPRLQFSLDIQT)” the “Competitive inhibition of cell adhesion to pseudomatrix by free cell adhesion peptide” value [5] was “competitively inhibited”.
In the case of “MBAC-AG73: pseudomatrix: MBAC polymer reacted with AG73 peptide (RKRLQVQLSIRT)”, the “Competitive inhibition of cell adhesion to pseudomatrix by free cell adhesion peptide” value [5] is reported as “competitively inhibited”, the “Competitive inhibition of cell adhesion by free peptide” value [1] is reported as “almost completely inhibited” and the “Adhesion … compared with coated FN” value ([1]; 50% ethanol, air-dried) is reported as “similarly to the case where FN was coated”.
For “MMAC-GRGDSP: pseudomatrix: MMAC polymer bound to GRGDSP peptide (also: bound to MMAC polymer)”, the “Adhesion … compared with coated FN” value ([1]; 50% ethanol, air-dried) was “slightly lower than that of the standard cell adhesion protein FN”.
